Results from publication PMC3964211, “Pharmacokinetic modeling optimizes inhibition of the ‘undruggable’ EWS-FLI1 transcription factor in Ewing Sarcoma” (Oncotarget, 2013).

System: A4573 xenograft
Experiment: Orthotopic mouse xenograft model, A4573, IP dosing
Assay type: in vivo, SCID/bg mice
Conditions: for Tumor histology (hematoxylin and eosin): A4573 tumors, two hours following the 6th dose; for Tumor histology (hematoxylin and eosin) / Regression of tumor volume over 3 days: BID IP 400 mg/kg; for Regression of tumor volume over 3 days: A4573 xenograft, 3-day, six-dose
Method: A series of models that combined results from in vitro colony assays and in vivo PK data were developed to evaluate several potential dosing schemes for the mice (Supplementary Figures 1A-E). We selected an IP dosing strategy (twice daily (BID) injections of […] racemic mixture) that would maintain a 3 ¼M plasma levels for greater than 72 hours in the mice (Figure 3A). With this IP dosing regimen, xenograft growth of A4573 was 70% less in the YK-4-279 treatment group compared to vehicle control (Figure 3B, p=0.04). […] To confrm the impact of YK-4-279 treatment on xenograft growth, mice with SK-ES xenografts were treated with racemic, (S), or (R)-YK-4-279 until control tumors reached 1 cm^3. Xenograft growth was reduced for those mice receiving both racemic and (S)-YK-4-279 over the control (Figure 3D, p=0.02 and p=0.003, respectively). […] Tumors were analyzed for drug levels of racemic, (R)-, and (S)-YK-4-279. Three of four mice treated with racemic compound had tumor levels of (S)-YK-4-279 that ranged from ~12-35 ¼g eq/g, which correlated with tumor growth ratios of less than 1.0, indicating response to the drug (Figure 3F). Those animals treated with the active (S)-YK-4-279 levels had tumor levels that were below 10 ¼g eq/g (Figure 3F). Tumor levels of (R)-YK-4-279 are also provided (Supplementary Figure 1F).
In order to evaluate tumors from animals treated in a similar fashion, including resection prior to central necrosis in controls, a 3-day, six-dose, experiment was executed. Treatment was initiated with racemic, (S)-, or (R)-YK-4-279 using BID IP administration at 400 mg/kg when tumors were well established at a volume of 250 to 300 mm^3. Both ES models treated with either racemic or (S)-YK-4-279 regressed by 25–30% of tumor volume over 3 days, while tumors grew in control and (R)-YK-4-279 treated animals (Figures 4A and B). Two hours following the 6th dose, mice were euthanized for tumor analysis. […] To confirm the apoptotic cell death, sections from A4573 tumors were stained with TUNEL (Figures 4D) and there was a 3 – 4 fold increase in TUNEL-positive cells treated with (S)-YK-4-279 compared to (R)-YK-R-279 treated tumors (Figure 4E). […] Levels of each enantiomer were measured in tumor samples and (S)-YK-4-279 levels correlated with clinical regression (Supplemental Figure 2B–E).
Two million A4573 or SK-ES Ewing's sarcoma cells in 0.1 mL were injected into an orthotopic paraosseous location, adjacent to the left proximal tibia, in 5-week-old female severe combined immunodeficient-beige (SCID/bg) mice (Harlan Laboratories, Inc., Indianapolis, IN). After primary tumors reached 250 – 300 mm^3 size, mice were randomized and received intraperitoneal injection (IP) with vehicle control (0.25% Lecithin solution or DMSO), (S)-YK-4-279, (R)-YK-4-279 or racemic YK-4-279 at a dose of 400 mg/kg twice a day (BID) for 7 days in a week. The tumor volume was determined by the formula (D × d2/6) × p, where D was the longer diameter and d was the shorter diameter. Tumor volume was monitored every day by caliper until the tumor size reaches 1cm^3. Mice were euthanized and primary tumors were collected. For the pharmacodynamics study mice were randomized and received 6 doses treatment with vehicle control (0.25% Lecithin solution or DMSO), (S)-YK-4-279, (R)-YK-4-279 or racemic YK-4-279 at a dose of 400 mg/kg twice a day (BID). Mice were euthanized after 2 hours of last 6th dosing and primary tumors were collected. […]

Row | SMILES | Tumor histology (hematoxylin and eosin) | Regression of tumor volume over 3 days | Xenograft growth less than vehicle control (A4573 xenograft mice, BID IP racemic mixture (375 mg/kg in text, 400 mg/kg in Figure 3 legend), p=0.04)
1 | COc1ccc(C(=O)C[C@]2(O)C(=O)Nc3c(Cl)ccc(Cl)c32)cc1 [(R)-YK-4-279] | healthy tumor cells, but fewer mitotic figures than the DMSO control | tumors grew | –
2 | COc1ccc(C(=O)CC2(O)C(=O)Nc3c(Cl)ccc(Cl)c32)cc1 (centres unmarked) [YK-4-279] | vacuolar cell death and nuclear fragmentation consistent with apoptosis | 25–30% | 70%
